Laboratory results taken from patent US20240108662A1, “ENGINEERED CELLS FUNCTIONALIZED WITH IMMUNE CHECKPOINT MOLECULES AND USES THEREOF” (The University of North Carolina at Chapel Hill, priority 2020, published 2024).

Legend:
Format in all cases: cell-based, mouse
MSCs = assay: MTS viability assay, MSCs
Procedure: (§1) In vitro toxicity of Ac4ManNAz and LEF, and viabilities of functionalized MSCs and MOLs: In vitro toxicities of Ac4ManNAz and LEF against MSCs and MOLs, and the viabilities of functionalized MSCs and MOLs were quantified by MTS assay. Briefly, treated/functionalized cells were cultured in complete media for 4 days. The phenol-red media was replaced by phenol red-free DMEM (supplemented with 10% FBS) before quantifying the viabilities via MTS assay according to the manufacturer's protocol. The MSCs were seeded at a density of 2×10^4 cells per well and the MOLs were seeded at a density of 1×10^4 cells per well in a 96-well plate.

[1] = tested on: 2D2 cells (MOG-specific CD4+ T cells); assay: PD-1 and CTLA-4 expressions of myelin-specific 2D2 cells after co-culture (FACS); details: E:T 10:1, 48 h
Procedure: Myelin-specific CD4 T cell in vitro activation: Mouse IFN-γ and mouse IL-17A secreted from the activated myelin-specific 2D2 cells were quantified by ELISA assays as previously reported^56. […] The cell culture media (contain mainly the 2D2 cells) were preserved. 2D2 cells were collected from the cultured media via centrifugation at 1,000 g for 10 min. The moue IFN-γ and mouse IL-17A concentrations in the supernatants were quantified via mouse IFN-γ ELISA kit (ab100689; Abcam, Cambridge, MA) and mouse IL-17A ELISA kit (ab199081; Abcam, Cambridge, MA), according to manufacturer's instructions. […] MIH4, catalog number: 53-9969-42, Invitrogen), PE-labeled anti-mouse CTLA-4 antibody (clone: […] Stained cells were fixed with 4% paraformaldehyde (4% PFA; Sigma) and kept in dark at 4° C. before further FACS study.

MOLs = assay: MTS viability assay, MOLs
Procedure: as §1

## Cc1oncc1C(=O)Nc1ccc(C(F)(F)F)cc1 [small-molecule LEF, Leflunomide]
MSCs
  in vitro toxicity against MSCs: moderate in vitro toxicity
[1]
  upregulation of PD-1 and CTLA-4 in co-cultured 2D2 cells: increased the expression of CTLA-4 in the co-cultured 2D2 cells
MOLs
  in vitro toxicity against MOLs: insignificant toxicity
